According to patent US7612064B2, “Sulfopyrroles” (Takeda Pharmaceutical Company Limited, priority 2003, dated 2009):
pIC50: −log10 of the molar value.

Experiments:
[1] = tested on: Jily; experiment: MTS proliferation assay; assay type: cell-based; details: 72 h
Procedure, shortened: (§1)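 Viability read-out is MTS absorbance at 492 nm after 3 h reagent incubation. It follows 72 h culture-condition treatment at four final concentrations (10, 3, 1, 0.3 μM), compounds delivered in medium holding max 5% DMSO.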

[2] = tested on: MRC5; experiment: MTS proliferation assay; assay type: cell-based; details: MRC5, 72 h
Procedure, shortened: as §1

[3] = tested on: HeLa; experiment: MTS proliferation assay; assay type: cell-based, human; details: 72 h
Procedure, shortened: as §1

[4] = tested on: Jurkat; experiment: MTS proliferation assay; assay type: cell-based, human; details: 72 h
Procedure, shortened: as §1

[5] = Hoechst 33342 nuclear staining; assay type: cell-based; details: for Hoechst 33342 nuclear staining score, H460: H460 cells; for Hoechst 33342 nuclear staining score, HeLa: HeLa cells; for Hoechst 33342 nuclear staining score, Jily: Jily cells; for Hoechst 33342 nuclear staining score, Jurkat: Jurkat cells; for Hoechst 33342 nuclear staining score, MRC5: MRC5 cells;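 for all read-outs here: apoptotic nuclei scored 0 none 1 weak under 50% of cells 2 strong over 50% of cells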
Procedure, shortened: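 After a further 30 min incubation, plates were inspected on a standard inverted fluorescence microscope. The fraction of apoptotic nuclei and other apoptosis-specific morphology were scored as 0 for no activity, 1 for weak activity in less than 50% of the cells, and 2 for strong activity in more than 50% of the cells.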

| Compound | pIC50 [1] | Hoechst 33342 nuclear staining score, H460 ([5]; conc 0.1) | Hoechst 33342 nuclear staining score, H460 ([5]; conc 0.3) | Hoechst 33342 nuclear staining score, H460 ([5]; conc 1) | Hoechst 33342 nuclear staining score, H460 ([5]; conc 3) | Hoechst 33342 nuclear staining score, HeLa ([5]; conc 0.1) | Hoechst 33342 nuclear staining score, HeLa ([5]; conc 0.3) | Hoechst 33342 nuclear staining score, HeLa ([5]; conc 1) | Hoechst 33342 nuclear staining score, HeLa ([5]; conc 3) | Hoechst 33342 nuclear staining score, Jily ([5]; conc 0.1) | Hoechst 33342 nuclear staining score, Jily ([5]; conc 0.3) | Hoechst 33342 nuclear staining score, Jily ([5]; conc 1) | Hoechst 33342 nuclear staining score, Jily ([5]; conc 3) | Hoechst 33342 nuclear staining score, Jurkat ([5]; conc 0.1) | Hoechst 33342 nuclear staining score, Jurkat ([5]; conc 0.3) | Hoechst 33342 nuclear staining score, Jurkat ([5]; conc 1) | Hoechst 33342 nuclear staining score, Jurkat ([5]; conc 3) | Hoechst 33342 nuclear staining score, MRC5 ([5]; conc 0.1) | Hoechst 33342 nuclear staining score, MRC5 ([5]; conc 0.3) | Hoechst 33342 nuclear staining score, MRC5 ([5]; conc 1) | also measured |
| --- | --- | --- | --- | --- | --- | --- | --- | --- | --- | --- | --- | --- | --- | --- | --- | --- | --- | --- | --- | --- | --- |
| COc1cc(-c2cc(-c3cccnc3)cn2S(=O)(=O)c2ccc(Cl)cc2)cc(OC)c1OC [Example 81] | < 6.00 | 0 | 0 | 0 | 2 (strong activity comprising more than 50% of the cells) | 0 | 0 | 0 | 1 (weak activity comprising less than 50% of the cells) | 0 | 0 | 0 | 1 (weak activity comprising less than 50% of the cells) | 0 | 0 | 0 | 2 (strong activity comprising more than 50% of the cells) | 0 | 0 | 0 | pIC50 [2]: < 6.00; pIC50 [3]: < 6.00; pIC50 [4]: < 6.00; Hoechst 33342 nuclear staining score, MRC5 ([5]; conc 3): 0; Hoechst 33342 nuclear staining score, PBLs ([5]; conc 0.1): 0; Hoechst 33342 nuclear staining score, PBLs ([5]; conc 0.3): 0; Hoechst 33342 nuclear staining score, PBLs ([5]; conc 1): 0; Hoechst 33342 nuclear staining score, PBLs ([5]; conc 3): 0 |
| COc1ccc(S(=O)(=O)n2cc(-c3ccc(N)nc3)cc2-c2cc(OC)c(OC)c(OC)c2)cc1 [Example 100, 4-(2-Aminopyrid-5-yl)-1-p-methoxyphenylsulfonyl-2-(3,4,5-trimethoxyphenyl)-pyrrole] | > 6.70 | 0 | 2 (strong activity comprising more than 50% of the cells) | 2 (strong activity comprising more than 50% of the cells) | 2 (strong activity comprising more than 50% of the cells) | 0 | 2 (strong activity comprising more than 50% of the cells) | 2 (strong activity comprising more than 50% of the cells) | 2 (strong activity comprising more than 50% of the cells) | 0 | 2 (strong activity comprising more than 50% of the cells) | 2 (strong activity comprising more than 50% of the cells) | 2 (strong activity comprising more than 50% of the cells) | 0 | 2 (strong activity comprising more than 50% of the cells) | 2 (strong activity comprising more than 50% of the cells) | 2 (strong activity comprising more than 50% of the cells) | 0 | 1 (weak activity comprising less than 50% of the cells) | 2 (strong activity comprising more than 50% of the cells) | pIC50 ([2]; Homo sapiens): > 6.70; pIC50 ([3]; Homo sapiens): > 6.70; pIC50 ([4]; Homo sapiens): > 6.70; Hoechst 33342 nuclear staining score, MRC5 ([5]; conc 3): 2 (strong activity comprising more than 50% of the cells); Hoechst 33342 nuclear staining score, PBLs ([5]; conc 0.1): 0; Hoechst 33342 nuclear staining score, PBLs ([5]; conc 0.3): 0; Hoechst 33342 nuclear staining score, PBLs ([5]; conc 1): 0; Hoechst 33342 nuclear staining score, PBLs ([5]; conc 3): 0 |
